Entries after “also recorded” stand apart in the source; their conditions may differ.
Assays:
Format in all cases: in vivo, Wistar rats
[1] = system: rats with continuous perfusion of Aβ (1-40) into lateral ventricle; test: Morris' water maze and working memory test after continuous i.c.v. perfusion of Aβ (1-40); settings: for search strategy after 5 days of training / latency after 5 days of training: Aβ (1-40) i.c.v. rats; for latency after 5 days of training: mean±standard error, model 30.18±4.81, sham 13.02±2.77, p<0.05 vs model
Procedure: For Morris' Water Maze Automatic Monitor and experimental protocols, reference may be made to the experiments of learning and memory damage of rats induced by brain hypoperfusion.
(§1) Male Wistar rats, which were 10-weeks old and weighed approximately 280 grams, were used. One animal was placed in one cage, while the room temperature was kept at 23° C., with food and water freely accessible. Rats were anaesthetized with sodium pentobarbital (40 mg/kg), and were fixed to stereotaxic apparatus with the position of ventral decubitus. Head skin was cut open, a cannula for Aβ (1-40) perfusion was implanted into right ventricle. According to the stereotaxic profile of rat brain by Paxions and Watson, the implantation site was located 0.3 mm behind and 1.1 mm in the right side of anterior fontanelle, with the depth of 4.0 mm. The cannula was connected to a micro-osmotic pump. The pump was placed on the back of the rat. Aβ (1-40) was dissolved in 35% acetonitrile/0.1% trifluroacetic acid, and was continuously perfused intracerebroventricularly (i.c.v.) at 300 pmol/day, while only the solvent (35% acetonitrile/0.1% trifluroacetic acid) was perfused in the control group.
(§2) Rats were randomly classified into […] groups, with 10 animals per group. 1) the sham surgery group: only 35% acetonitrile/0.1% trifluroacetic acid+solvent was perfused into the ventricles of the rats; 2) the model group: Aβ (1-40)+solvent; 3) Aβ (1-40)+L-NBP 10 mg/kg group; 4) Aβ (1-40)+L-NBP 30 mg/kg group. Respective drug or solvent was drenched since the 2nd day after the surgery. The water maze experiment was performed on the 9-13 day after the surgery, while the platform exploration experiment was performed on the 13th day, and the working memory test was performed on the 14-16th days. Animals were decapitated to remove brains for biochemical assay on the 17th day. In all ethological tests, medicines were administered 40 minutes prior to the respective test.
The water maze training experiment was performed on the 9-13th day after icv Aβ (1-40), and the platform exploration experiment was performed on the 13 day after that. The working memory test was performed on the 14-16th day after icv Aβ (1-40) (see the figure above), which investigated the ability of rapid learning and spatial memory in animals when the platform and quadrant were changed, based on the fact that animals had memorized in some extent after training and platform exploration experiment. Experimental procedure was similar to the standard water maze training experiment except that the platform's location was changed every day. The experiment was conducted five times every day, allowing the rats to start swimming from five water-entry sites respectively. […] In the following 4 experiments, the location of the platform was kept constant, yet the water entry sites were within different quadrants. The latency of working memory was calculated by averaging those of the 2-5th experiments, and the ability of working memory of each rat was calculated by averaging the experimental values in 3 days.
(§3) All results were expressed in mean±standard error. Comparison of latencies between groups in water maze experiment was performed using two-factor analysis of variance in replicate. Comparison between groups was performed using post hoc LSD or Turkey test. Platform exploration test in water maze experiment, working memory test and biochemical assay were analyzed using one-factor analysis of variance. A difference was considered significant when p<0.05.

[2] = system: rats with permanent ligation of bilateral common carotid arteries (2-VO model); test: Morris' water maze (training latency, platform exploration) in 2-VO hypoperfusion model; settings: for amelioration of impaired short-term memory and spatial orientation (overall conclusion): 2-VO rats with poor blood supply to brain, L-NBP at 10 mg/kg, 10 mg/kg
[3] = system: glutathione peroxidase (GSH-Px); test: GSH-Px activity in cortex and hippocampus after continuous perfusion of Aβ (1-40); settings: Aβ (1-40) rats; for GSH-PX, hippocampus / GSH-PX, cortex: n = 7; for GSH-PX, hippocampus: model 9.32 ± 1.01, sham 16.19 ± 1.19; for GSH-PX, cortex: model 11.18 ± 1.32, sham 15.86 ± 0.91
Procedure: as §1, §2
(§4) Malondialdehyde (MDA) and glutathione peroxidase (GSH-Px) were determined by the same assays as above.
as §3

[4] = system: Superoxide dismutase (SOD); test: SOD activity in cortex and hippocampus of hypoperfused (2-VO) rats; settings: 10 mg/kg
[5] = system: malondialdehyde (MDA); test: MDA content in cortex and hippocampus after continuous perfusion of Aβ (1-40); settings: Aβ (1-40) rats; for MDA, hippocampus / MDA, cortex: n = 7; for MDA, hippocampus: model 1.48 ± 0.12, sham 1.13 ± 0.06; for MDA, cortex: model 1.48 ± 0.14, sham 1.10 ± 0.09
Procedure: as §1, §2, §4, §3

[6] = system: malondialdehyde (MDA); test: MDA content in cortex and hippocampus of hypoperfused (2-VO) rats; settings: 10 mg/kg
[7] = system: choline acetyltransferase (ChAT); test: ChAT activity in cortex and hippocampus of hypoperfused (2-VO) rats; settings: 10 mg/kg

## CCCC[C@@H]1OC(=O)c2ccccc21 [L-NBP, L-n-butylphthalide]
[1]; 10 mg/kg oral
  search strategy after 5 days of training: changed from peripheral and random to purposive and linear
  latency after 5 days of training: 27.28 ± 6.42 s
[1]; 30 mg/kg oral
  search strategy after 5 days of training: changed from peripheral and random to purposive and linear
  latency after 5 days of training: 25.88 ± 5.51 s
[1]; 10 and 30 mg/kg, days 14-16 after Aβ (1-40), model 14.05±1.88 s, sham 9.15±0.91 s, p<0.01
  working memory (latency in 2-5th experiments): can significantly improve the working memory ability in a dose-dependent way; also recorded: could improve the working memory of rats in a dose-dependent manner
[1]; continuous perfusion of Aβ (1-40) into lateral ventricle, rats, Morris' water maze
  amelioration of impaired short-term memory and stereotaxic memory (overall conclusion): could significantly ameliorate
[2]; 10 mg/kg oral, 2-VO rats, mean±standard error, solvent control 14.40±0.73, sham 17.73±1.19, p<0.05 vs solvent control
  detention time in the target quadrant (platform exploration test, 60 seconds free swimming): 17.62 ± 1.27 s
[2]; 10 mg/kg oral, 2-VO rats, mean±standard error, solvent control 47.6±5.88, sham surgery 12.6±3.34, p<0.001 vs solvent control
  latency (time required for finding the platform) after 5 days of training: 26.85 ± 5.98 s
[2]; 10 mg/kg oral, 2-VO rats, solvent control still peripheral and random
  search strategy after 5 days of training: changed from peripheral and random to purposive and linear
[2]
  amelioration of impaired short-term memory and spatial orientation (overall conclusion): could significantly ameliorate
[2]; listed as L-n-butylphthalide
  amelioration of impaired short-term memory and spatial orientation (overall conclusion): could significantly improve; also recorded: could significantly ameliorate
[3]; 10 mg/kg
  GSH-Px activity after treatment (in words): could also increase the activity of GSH-Px, but with no statistically significant difference
  GSH-PX, hippocampus: 12.73 ± 1.34 U/mg protein
  GSH-PX, cortex: 11.73 ± 0.53 U/mg protein
[3]; 30 mg/kg, p<0.01 vs model
  GSH-PX, hippocampus: 18.91 ± 1.16 U/mg protein
  GSH-PX, cortex: 15.40 ± 1.03 U/mg protein
[3]; 30 mg/kg, p<0.01
  GSH-Px activity after treatment (in words): increased significantly
[3]
  GSH-Px activity and MDA content (overall conclusion): could improve GSH-Px activity and reduce MDA content
[4]; 2-VO rats, p<0.05
  SOD activity in hippocampus after treatment (in words): returned close to the normal level
[4]; hypoperfused rats, n = 7-9, solvent control 81.16 ± 6.84, sham 57.90 ± 7.41, p<0.05 vs solvent control
  SOD activity, hippocampus: 57.60 ± 3.86 NU/mg protein
[4]; hypoperfused rats, n = 7-9, solvent control 114.42 ± 7.82, sham 100.07 ± 3.64
  SOD activity, cortex: 98.84 ± 5.53 NU/mg protein
[5]; 10 mg/kg, p<0.01 vs model
  MDA, hippocampus: 1.12 ± 0.07 nmol/mg protein
[5]; 10 mg/kg, p<0.05 vs model
  MDA, cortex: 1.06 ± 0.05 nmol/mg protein
[5]; 10 mg/kg, vs model, p<0.01
  reduction of hippocampal MDA content: 24.3%
[5]; 10 mg/kg, vs model, p<0.05
  reduction of cortical MDA content: 28.4%
[5]; 30 mg/kg, p<0.05 vs model
  MDA, hippocampus: 1.15 ± 0.07 nmol/mg protein
  MDA, cortex: 1.06 ± 0.10 nmol/mg protein
[5]; 30 mg/kg, vs model group p<0.05
  effect on cortical and hippocampal MDA content (in words): weaker than that in the 10 mg/kg group, yet were still significantly different; also recorded: a little weaker in the 30 mg/kg group than in the 10 mg/kg group, yet still significantly different
[6]; 2-VO rats, vs model group, p<0.001
  reduction of MDA content in cortex: 20.7%
[6]; hypoperfused rats, n = 7-9, solvent control 3.63 ± 0.45, sham 3.03 ± 0.12
  MDA content, hippocampus: 3.42 ± 0.12 nmol/mg protein
[6]; hypoperfused rats, n = 7-9, solvent control 3.91 ± 0.22, sham 3.13 ± 0.10, p<0.001 vs solvent control
  MDA content, cortex: 3.10 ± 0.09 nmol/mg protein
[7]; continuous administration for 16 days, 2-VO rats, p<0.05
  improvement of cortical ChAT activity as compared with the model group: 37.1%
[7]; hypoperfused rats, n = 7-9, solvent control 65.6 ± 15.1, p<0.05 vs solvent control
  ChAT activity, cortex: 104.3 ± 8.2 % of sham
[7]; hypoperfused rats, n = 7-9, solvent control 102.6 ± 15.1
  ChAT activity, hippocampus: 110.0 ± 13.5 % of sham

Reference: patent US8552058B2, “Application of L-n-butylphthalide in preventing and treating dementia” (CSPC Zhongqi Pharmaceutical Technology (Shijazhuang) Co., …, priority 2004, dated 2013)
